According to ChEMBL document CHEMBL1135520, “Rational design and synthesis of a novel thyroid hormone antagonist that blocks coactivator recruitment” (J Med Chem, 2002):

Experiments:
[1] = molecular target: T1, Thyroid hormone receptor alpha (Homo sapiens, UniProt P10827)
T1 sequence (P10827 whole entry): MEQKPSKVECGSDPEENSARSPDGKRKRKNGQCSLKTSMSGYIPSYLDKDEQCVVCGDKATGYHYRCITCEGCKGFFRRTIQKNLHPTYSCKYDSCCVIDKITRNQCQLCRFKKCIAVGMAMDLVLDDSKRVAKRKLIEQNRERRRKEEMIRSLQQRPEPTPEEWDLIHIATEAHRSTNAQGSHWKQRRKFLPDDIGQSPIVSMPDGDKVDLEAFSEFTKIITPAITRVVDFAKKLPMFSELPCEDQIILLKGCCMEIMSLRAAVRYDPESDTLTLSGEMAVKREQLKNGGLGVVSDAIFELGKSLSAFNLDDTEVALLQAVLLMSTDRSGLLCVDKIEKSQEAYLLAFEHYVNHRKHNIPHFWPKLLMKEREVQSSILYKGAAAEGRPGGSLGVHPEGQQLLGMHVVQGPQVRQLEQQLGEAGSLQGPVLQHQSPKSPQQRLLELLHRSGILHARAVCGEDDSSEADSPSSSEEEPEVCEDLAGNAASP

[2] = molecular target: T2, Thyroid hormone receptor beta (Homo sapiens, UniProt P10828); experiment: Half-maximum activation of human Thyroid hormone receptor beta 1 (hTRbeta1)
T2 sequence (P10828 whole entry): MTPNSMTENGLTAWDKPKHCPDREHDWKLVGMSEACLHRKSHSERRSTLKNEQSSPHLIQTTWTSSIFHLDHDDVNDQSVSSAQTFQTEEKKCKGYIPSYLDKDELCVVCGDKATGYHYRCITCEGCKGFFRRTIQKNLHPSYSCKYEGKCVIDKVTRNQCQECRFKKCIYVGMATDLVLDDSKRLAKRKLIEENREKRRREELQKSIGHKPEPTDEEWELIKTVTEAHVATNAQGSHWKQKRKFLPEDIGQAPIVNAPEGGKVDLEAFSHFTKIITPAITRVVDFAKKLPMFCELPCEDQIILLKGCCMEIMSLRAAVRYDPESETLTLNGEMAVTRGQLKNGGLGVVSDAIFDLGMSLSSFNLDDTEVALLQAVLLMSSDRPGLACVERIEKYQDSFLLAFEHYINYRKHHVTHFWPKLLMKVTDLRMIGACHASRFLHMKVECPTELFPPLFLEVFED

[3] = molecular target: T2, Thyroid hormone receptor beta
[4] = molecular target: T1, Thyroid hormone receptor alpha; experiment: Half-maximum activation of human Thyroid hormone receptor alpha-1 (hTRalpha1)

| Structure (SMILES) | Kd [1] | IC50 [2] | Kd [3] | IC50 [4] | EC50 [2] |
| --- | --- | --- | --- | --- | --- |
| Cc1cc(OCC(=O)O)cc(C)c1Cc1cc(C#Cc2ccc([N+](=O)[O-])cc2)c(O)c(C(C)C)c1 | 93 nM | 370 nM | 20 nM | 950 nM | – |
| CCCCCc1ccc(C#Cc2cc(Cc3c(C)cc(OCC(=O)O)cc3C)cc(C(C)C)c2O)cc1 | 5.2 nM | – | 0.52 nM | – | 380 nM |
| Cc1cc(OCC(=O)O)cc(C)c1Cc1cc(C#Cc2ccc(N)cc2)c(O)c(C(C)C)c1 | 330 nM | – | 90 nM | – | – |
| Cc1cc(OCC(=O)O)cc(C)c1Cc1cc(C#Cc2ccccc2)c(O)c(C(C)C)c1 | 490 nM | – | 37 nM | – | 500 nM |
| Cc1cc(OCC(=O)O)cc(C)c1Cc1cc(-c2ccc([N+](=O)[O-])cc2)c(O)c(C(C)C)c1 | 200 nM | 680 nM | 35 nM | 5000 nM | – |
